Read-outs that look alike come from different tables or passages of the source. Each block holds one compound with its values, some of them ahead of it.
How the values were obtained:
GlyT1 transporter = target: T1, GlyT1 transporter (Homo sapiens, UniProt P48067); assay: GlyT1 transporter [3H]-glycine uptake SPA assay in HEK293 cells; assay type: cell-based; settings: for IC50: HEK293 cells expressing the Glycine (Type 1) transporter
T1 construct: expressed in transfected cells
T1 sequence (P48067 1-706): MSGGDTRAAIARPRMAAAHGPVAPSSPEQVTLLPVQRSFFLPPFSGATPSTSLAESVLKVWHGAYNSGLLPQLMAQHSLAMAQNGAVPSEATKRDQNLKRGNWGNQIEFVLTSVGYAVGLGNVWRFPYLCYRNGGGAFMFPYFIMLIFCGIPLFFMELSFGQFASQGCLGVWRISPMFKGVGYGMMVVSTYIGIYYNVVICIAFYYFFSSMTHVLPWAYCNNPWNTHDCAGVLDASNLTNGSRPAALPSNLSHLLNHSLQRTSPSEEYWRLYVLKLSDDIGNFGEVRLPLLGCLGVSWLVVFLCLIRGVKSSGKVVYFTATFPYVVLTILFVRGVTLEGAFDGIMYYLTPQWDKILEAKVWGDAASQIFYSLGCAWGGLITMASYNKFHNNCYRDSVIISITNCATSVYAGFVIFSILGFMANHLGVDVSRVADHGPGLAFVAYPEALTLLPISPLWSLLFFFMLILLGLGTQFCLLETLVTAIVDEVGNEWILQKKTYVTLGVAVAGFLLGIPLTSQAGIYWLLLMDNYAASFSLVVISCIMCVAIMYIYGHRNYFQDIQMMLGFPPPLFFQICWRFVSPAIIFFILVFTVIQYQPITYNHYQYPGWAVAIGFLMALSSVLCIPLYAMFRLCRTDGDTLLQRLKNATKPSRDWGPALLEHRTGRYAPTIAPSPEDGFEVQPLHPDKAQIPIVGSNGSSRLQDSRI
Description: The affinities of the compounds of this invention for the GlyT1 transporter were determined by the following assay:
HEK293 cells expressing the Glycine (Type 1) transporter were grown in cell culture medium [DMEM/NUT mix F12 containing 2 mM L-Glutamine, 0.8 mg/mL G418 and 10% heat inactivated fetal calf serum] at 37° C. and 5% CO2. Cells grown to 70-80% confluency in T175 flasks were harvested and frozen. For the assay, cells were defrosted and resuspended at 1.32×10^6 cells/mL in assay buffer [140 mM NaCl, 5.4 mM KCl, 1.8 mM CaCl2, 0.8 mM MgSO4, 20 mM HEPES, 5 mM glucose and 5 mM alanine, pH 7.4]. Compounds were serially diluted either 3-fold or 4-fold in DMSO from a top concentration of 2.5 mM with each compound giving a 11 data point dose-response. 100 nL of compound at each concentration was added to the assay plate. An equal volume of Leadseeker™ WGA SPA beads (12.5 mg/ml suspended in assay buffer) was added to the cell suspension (1.32×106) and 5 uL of the cell/bead suspension transferred to each well of a LV384-well white solid bottom plate (3300 cells/well) containing 100 nL of test compounds. Substrate (5 uL) was added to each well [1:100 dilution of [3H]-glycine stock in assay buffer containing 2.5 uM glycine). Final DMSO concentration was 1% v/v. Data was collected using a Perkin Elmer Viewlux™. pIC50 values were determined using ActivityBase™.

GlyT2 = target: T2, GlyT2 (Homo sapiens, UniProt Q9Y345); assay: Affinity for GlyT1 compared with GlyT2 (statement, no method given); settings: qualitative statement on the parent compound; no value given
T2 sequence (Q9Y345 1-797): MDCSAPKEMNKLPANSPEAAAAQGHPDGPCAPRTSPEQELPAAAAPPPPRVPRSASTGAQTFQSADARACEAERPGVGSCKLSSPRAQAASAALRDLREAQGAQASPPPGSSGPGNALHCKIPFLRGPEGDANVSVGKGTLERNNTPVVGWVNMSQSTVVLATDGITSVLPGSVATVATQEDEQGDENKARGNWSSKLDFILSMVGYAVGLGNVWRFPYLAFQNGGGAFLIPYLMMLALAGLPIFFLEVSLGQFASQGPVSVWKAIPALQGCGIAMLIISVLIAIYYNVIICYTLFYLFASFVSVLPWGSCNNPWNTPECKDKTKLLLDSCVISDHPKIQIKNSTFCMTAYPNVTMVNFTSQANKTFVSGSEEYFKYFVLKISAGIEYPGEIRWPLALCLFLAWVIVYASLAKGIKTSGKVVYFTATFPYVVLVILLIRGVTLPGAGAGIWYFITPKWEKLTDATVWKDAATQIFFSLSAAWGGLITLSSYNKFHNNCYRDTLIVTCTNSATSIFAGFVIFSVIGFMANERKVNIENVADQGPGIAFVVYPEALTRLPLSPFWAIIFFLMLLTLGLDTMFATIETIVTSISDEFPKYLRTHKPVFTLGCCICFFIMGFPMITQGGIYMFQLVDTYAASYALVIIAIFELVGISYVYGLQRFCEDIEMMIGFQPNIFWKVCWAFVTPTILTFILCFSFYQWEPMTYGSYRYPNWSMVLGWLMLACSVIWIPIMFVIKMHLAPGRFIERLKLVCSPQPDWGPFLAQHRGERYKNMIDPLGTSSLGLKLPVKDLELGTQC

SMILES: COc1cc(C(F)(F)F)cc(C(F)(F)F)c1C(=O)NC(c1ccccc1)C(C)(C)N1CCCC1 (stereo not shown) [2-(methyloxy)-N-[2-methyl-1-phenyl-2-(1-pyrrolidinyl)propyl]-4,6-bis(trifluoromethyl)benzamide]
inhibition of the glycine transporter type GlyT1 (result in words) (GlyT1 transporter; qualitative statement on the parent compound, no value given): inhibitor of the glycine transporter type GlyT1 | affinity for GlyT1 relative to GlyT2 (selectivity, result in words) (GlyT2): greater affinity for GlyT1 than for GlyT2

IC50 (GlyT1 transporter; n=1, read-out: pIC50 at the GlyT1 transporter (converted)): 5.01 nM
SMILES: COc1cc(C(F)(F)F)cc(C(F)(F)F)c1C(=O)N[C@H](c1ccccc1)C(C)(C)N1CCCC1 [R-(−)-2-(Methyloxy)-N-[2-methyl-1-phenyl-2-(1-pyrrolidinyl)propyl]-4,6-bis(trifluoromethyl)benzamide 1,5-heminapadisylate]

IC50 (GlyT1 transporter; n=5, read-out: average pIC50 at the GlyT1 transporter (converted)): 15.8 nM
SMILES: COc1cc(C(F)(F)F)cc(C(F)(F)F)c1C(=O)N[C@H](c1ccccc1)C(C)(C)N1CCCC1 [R-(−)-2-(Methyloxy)-N-[2-methyl-1-phenyl-2-(1-pyrrolidinyl)propyl]-4,6-bis(trifluoromethyl)benzamide monosuccinate]

— US20080070973A1, “Compounds having activity at the GlyT1 transporter” (priority 2006, published 2008)
